Data: PubChem BioAssay AID248 (DTP/NCI, 2004)
Where “and” joins values, the source holds several entries; their conditions need not be identical. Equal values may be shown once. Inconclusive results and toxic doses are left out. Rule as the data show it: active = T/C of 150% or more; inactive = T/C below 125%.

Tested on: L1210 leukemia ip in BDF1 mice, survival T/C
Experiment: NCI In Vivo Anticancer Drug Screen. Data for tumor model L1210 Leukemia (intraperitoneal) in B6D2F1 (BDF1) mice
Details: higher = longer survival
Summary of the method: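 Transplantable tumor model; survival measured in treated vs vehicle control mice. Value = treated/control.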

Measured: T/C

COc1cccc2c1C(=O)c1c(O)c3c(c(O)c1C2=O)C[C@@](O)(C(C)=O)C[C@@H]3OC1CC(N)C(O)C(C)O1 (stereo partly drawn)
inactive: endpoint: mean survival time, dose: 0.05 mg/kg/injection, schedule: Q01DX009 (ip), vehicle: saline 105 % of control | endpoint: mean survival time, dose: 0.1 mg/kg/injection, schedule: Q01DX015 (ip), vehicle: water 104 % of control | endpoint: mean survival time, dose: 0.1 mg/kg/injection, schedule: Q02DX008 (ip), vehicle: water 97 % of control | endpoint: mean survival time, dose: 0.14 mg/kg/injection, schedule: Q04DX002 (ip), vehicle: saline 104 % of control and 105 % of control | endpoint: mean survival time, dose: 0.14 mg/kg/injection, schedule: Q## X004 (ip), vehicle: water 103 % of control | endpoint: mean survival time, dose: 0.15 mg/kg/injection, schedule: Q02DX008 (ip), vehicle: water 106 % of control | endpoint: mean survival time, dose: 0.25 mg/kg/injection, schedule: Q04DX003 (ip), vehicle: water 104 % of control | endpoint: mean survival time, dose: 0.27 mg/kg/injection, schedule: Q04DX002 (ip), vehicle: saline 94 % of control | endpoint: mean survival time, dose: 0.54 mg/kg/injection, schedule: Q04DX002 (ip), vehicle: saline 100 % of control | endpoint: mean survival time, dose: 1.0 mg/kg/injection, schedule: Q03HX024 (ip), vehicle: water 103 % of control | endpoint: mean survival time, dose: 1.0 mg/kg/injection, schedule: Q04DX005 (ip), vehicle: saline 105 % of control | endpoint: mean survival time, dose: 1.3 mg/kg/injection, schedule: Q02DX005 (ip), vehicle: saline 97 % of control | endpoint: mean survival time, dose: 1.8 mg/kg/injection, schedule: Q## X032 (ip), vehicle: water 95 % of control | endpoint: mean survival time, dose: 2.0 mg/kg/injection, schedule: Q02DX005 (ip), vehicle: saline 102 % of control | endpoint: mean survival time, dose: 2.0 mg/kg/injection, schedule: Q02DX009 (ip), vehicle: saline 102 % of control | endpoint: mean survival time, dose: 2.0 mg/kg/injection, schedule: Q03HX024 (ip), vehicle: water 100 % of control | endpoint: mean survival time, dose: 2.7 mg/kg/injection, schedule: Q## X032 (ip), vehicle: water 100 % of control | endpoint: mean survival time, dose: 3.33 mg/kg/injection, schedule: Q01DX Z (ip), vehicle: saline 105 % of control | endpoint: mean survival time, dose: 3.95 mg/kg/injection, schedule: Q01DX Z (oral), vehicle: saline 101 % of control | endpoint: mean survival time, dose: 4.0 mg/kg/injection, schedule: Q01DX003 (ip), vehicle: saline 103 % of control | endpoint: mean survival time, dose: 4.0 mg/kg/injection, schedule: Q01DX005 (ip), vehicle: saline 102 % of control | endpoint: mean survival time, dose: 4.0 mg/kg/injection, schedule: Q01DX010 (ip), vehicle: saline 92 % of control and 103 % of control | endpoint: mean survival time, dose: 4.0 mg/kg/injection, schedule: Q01DX014 (ip), vehicle: saline 100 % of control | endpoint: mean survival time, dose: 4.0 mg/kg/injection, schedule: Q04DX005 (ip), vehicle: saline 106 % of control | endpoint: mean survival time, dose: 4.0 mg/kg/injection, schedule: Q06HX004 (ip), vehicle: water 102 % of control | endpoint: mean survival time, dose: 4.0 mg/kg/injection, schedule: Q## X Z (ip), vehicle: water 104 % of control | endpoint: mean survival time, dose: 5.0 mg/kg/injection, schedule: Q01DX009 (oral), vehicle: saline 104 % of control | endpoint: mean survival time, dose: 5.0 mg/kg/injection, schedule: Q01DX Z (ip), vehicle: saline 95 % of control | endpoint: mean survival time, dose: 5.92 mg/kg/injection, schedule: Q01DX Z (oral), vehicle: saline 106 % of control | endpoint: mean survival time, dose: 6.0 mg/kg/injection, schedule: Q01DX014 (ip), vehicle: saline 105 % of control | endpoint: mean survival time, dose: 6.25 mg/kg/injection, schedule: Q01DX009 (ip), vehicle: saline 95 % of control | endpoint: mean survival time, dose: 8.0 mg/kg/injection, schedule: Q01DX001 (ip), vehicle: water 98 % of control | endpoint: mean survival time, dose: 8.0 mg/kg/injection, schedule: Q01DX015 (ip), vehicle: saline 103 % of control | endpoint: mean survival time, dose: 8.88 mg/kg/injection, schedule: Q01DX001 (ip), vehicle: saline 105 % of control | endpoint: mean survival time, dose: 8.88 mg/kg/injection, schedule: Q01DX Z (oral), vehicle: saline 100 % of control | endpoint: mean survival time, dose: 9.0 mg/kg/injection, schedule: Q## X032 (ip), vehicle: water 104 % of control | endpoint: mean survival time, dose: 10.0 mg/kg/injection, schedule: Q04DX003 (ip), vehicle: water 104 % of control | endpoint: mean survival time, dose: 12.0 mg/kg/injection, schedule: Q02DX008 (ip), vehicle: saline 102 % of control | endpoint: mean survival time, dose: 12.5 mg/kg/injection, schedule: Q01DX001 (oral), vehicle: water 103 % of control | endpoint: mean survival time, dose: 13.0 mg/kg/injection, schedule: Q## X004 (ip), vehicle: saline 96 % of control | endpoint: mean survival time, dose: 13.3 mg/kg/injection, schedule: Q01DX001 (ip), vehicle: saline 94 % of control and 95 % of control | endpoint: mean survival time, dose: 13.3 mg/kg/injection, schedule: Q01DX Z (oral), vehicle: saline 98 % of control | endpoint: mean survival time, dose: 13.33 mg/kg/injection, schedule: Q#B X Z (oral), vehicle: water 103 % of control | endpoint: mean survival time, dose: 20.0 mg/kg/injection, schedule: Q01DX001 (ip), vehicle: water 95 % of control | endpoint: mean survival time, dose: 20.0 mg/kg/injection, schedule: Q01DX Z (oral), vehicle: saline 106 % of control | endpoint: mean survival time, dose: 25.0 mg/kg/injection, schedule: Q01DX001 (oral), vehicle: water 94 % of control | endpoint: mean survival time, dose: 25.0 mg/kg/injection, schedule: Q04DX002 (ip), vehicle: saline 97 % of control | endpoint: mean survival time, dose: 30.0 mg/kg/injection, schedule: Q01DX001 (ip), vehicle: saline 95 % of control | endpoint: mean survival time, dose: 30.0 mg/kg/injection, schedule: Q01DX Z (oral), vehicle: saline 102 % of control | endpoint: mean survival time, dose: 45.0 mg/kg/injection, schedule: Q01DX Z (oral), vehicle: saline 102 % of control | endpoint: mean survival time, dose: 50.0 mg/kg/injection, schedule: Q01DX001 (oral), vehicle: water 97 % of control | endpoint: mean survival time, dose: 80.0 mg/kg/injection, schedule: Q01DX010 (oral), vehicle: saline 103 % of control | endpoint: mean survival time, dose: 80.0 mg/kg/injection, schedule: Q07DX Z (oral), vehicle: water 97 % of control | endpoint: mean survival time, dose: 100.0 mg/kg/injection, schedule: Q01DX001 (oral), vehicle: water 100 % of control | endpoint: mean survival time, dose: 160.0 mg/kg/injection, schedule: Q07DX Z (oral), vehicle: water 101 % of control | endpoint: median survival time, dose: 0.05 mg/kg/injection, schedule: Q01DX001 (ip), vehicle: saline 100 % of control | endpoint: median survival time, dose: 0.2 mg/kg/injection, schedule: Q01DX001 (ip), vehicle: saline 94 % of control and 100 % of control | endpoint: median survival time, dose: 0.28 mg/kg/injection, schedule: Q03HX008 (ip), vehicle: water 105 % of control | endpoint: median survival time, dose: 0.8 mg/kg/injection, schedule: Q01DX001 (ip), vehicle: saline 100 % of control | endpoint: median survival time, dose: 1.75 mg/kg/injection, schedule: Q04DX003 (ip), vehicle: water 94 % of control | endpoint: median survival time, dose: 1.8 mg/kg/injection, schedule: Q01DX005 (ip), vehicle: water 105 % of control | endpoint: median survival time, dose: 2.0 mg/kg/injection, schedule: Q01DX001 (iv), vehicle: water 99 % of control | endpoint: median survival time, dose: 2.0 mg/kg/injection, schedule: Q01DX005 (ip), vehicle: other 106 % of control | endpoint: median survival time, dose: 2.0 mg/kg/injection, schedule: Q03HX008 (ip), vehicle: water 94 % of control | endpoint: median survival time, dose: 2.6 mg/kg/injection, schedule: Q04DX003 (ip), vehicle: water 105 % of control | endpoint: median survival time, dose: 3.0 mg/kg/injection, schedule: Q01DX005 (ip), vehicle: water 100 % of control | endpoint: median survival time, dose: 3.0 mg/kg/injection, schedule: Q04DX003 (sc), vehicle: water 99 % of control and 100 % of control | endpoint: median survival time, dose: 3.9 mg/kg/injection, schedule: Q01DX001 (ip), vehicle: water 100 % of control | endpoint: median survival time, dose: 3.9 mg/kg/injection, schedule: Q04DX003 (ip), vehicle: water 100 % of control | endpoint: median survival time, dose: 4.0 mg/kg/injection, schedule: Q01DX001 (ip), vehicle: saline 106 % of control | endpoint: median survival time, dose: 4.0 mg/kg/injection, schedule: Q01DX001 (iv), vehicle: water 102 % of control | endpoint: median survival time, dose: 5.0 mg/kg/injection, schedule: Q01DX017 (ip), vehicle: water 105 % of control | endpoint: median survival time, dose: 5.0 mg/kg/injection, schedule: Q04DX003 (ip), vehicle: Klucel (hydroxypropylcellulose) (HPC) 105 % of control | endpoint: median survival time, dose: 5.9 mg/kg/injection, schedule: Q01DX001 (ip), vehicle: water 105 % of control | endpoint: median survival time, dose: 5.9 mg/kg/injection, schedule: Q04DX003 (ip), vehicle: water 100 % of control | endpoint: median survival time, dose: 8.0 mg/kg/injection, schedule: Q01DX001 (iv), vehicle: water 102 % of control | endpoint: median survival time, dose: 8.3 mg/kg/injection, schedule: Q04DX003 (ip), vehicle: Klucel (hydroxypropylcellulose) (HPC) 94 % of control and 97 % of control | endpoint: median survival time, dose: 8.9 mg/kg/injection, schedule: Q01DX001 (ip), vehicle: water 94 % of control | endpoint: median survival time, dose: 10.0 mg/kg/injection, schedule: Q01DX001 (ip), vehicle: water 97 % of control and 100 % of control | endpoint: median survival time, dose: 10.0 mg/kg/injection, schedule: Q04DX003 (ip), vehicle: water 100 % of control | endpoint: median survival time, dose: 13.3 mg/kg/injection, schedule: Q01DX001 (ip), vehicle: water 100 % of control | endpoint: median survival time, dose: 25.0 mg/kg/injection, schedule: Q04DX003 (sc), vehicle: water 100 % of control and 102 % of control | endpoint: median survival time, dose: 39.0 mg/kg/injection, schedule: Q04DX003 (sc), vehicle: water 99 % of control and 100 % of control
